Test results: patent publication US7635686B2, “Therapeutically useful triethyleneglycol cholesteryl oligonucleotides” (Bioniche Life Sciences, Inc., priority 2001, dated 2009)
{TEG-Chol} = cholesteryl attached through a triethylene glycol (TEG) linker

Key:
EL-4 cells [1] = test: Apoptosis by phosphatidylserine redistribution (annexin V flow cytometry) in EL-4 cells; format: cell-based, murine; settings: 24 hours; for Percentage of positive cells for phosphatidylserine (cells in apoptosis) in EL-4 cells: untreated cells 7%; for Induction of apoptosis in EL-4 cells (in words): translocation of phosphatidylserine, up to 53.0 μM
Method: Redistribution of plasma membrane phosphatidylserine is a characteristic of cells undergoing apoptosis (Martin et al., J. Exp. Med., 182:1545, 1995). The redistribution of phosphatidylserine in the plasma membrane during apoptosis was measured by flow cytometry using FITC (fluorescein isothiocyanate)-conjugated annexin V (BD Pharmingen, San Diego, Calif.). MEG-01 cells, a human chronic myelogeneous leukemia cell line positive for the Philadelphia chromosome and having a BCR-ABL gene fusion, were incubated at 2.5×10^5 cells/ml for 48 hours with 5.3, 26.5 and 53.0 μM final concentrations of SEQ ID NO:1, SEQ ID NO:2, SEQ ID NO:5, SEQ ID NO:6 and cholesteryl-TEG phosphoramidite molecule. The percentage of cells in apoptosis after exposure to the SEQ ID NOs:1, 2, 5, 6, or cholesteryl-TEG phosphoramidite treatment is reported in Table 2. The percentage of apoptosis in untreated MEG-01 cells was 12%.
EL-4 cells, a murine T lymphoma cell line, were incubated at 2.5×10^5 cells/ml for 24 hours with 0.53, 5.3 and 53.0 μM concentrations of SEQ ID NO:3, SEQ ID NO:7 or cholesteryl-TEG phosphoramidite. The percentage of cells in apoptosis after exposure to SEQ ID NO:3, SEQ ID NO:7 or cholesteryl-TEG phosphoramidite treatment is reported in Table 3. The percentage of apoptosis in untreated EL-4 cells was 7%.

EL-4 cells [2] = test: Activation of caspase 3 in EL-4 cells (PE-antibody flow cytometry); format: cell-based, murine; settings: 53 μM, 72 hrs; for Percentage of cells containing activated caspase-3: EL-4 cells, untreated 3
Method: EL-4 cells (2.5×10^5 cells/ml) were incubated for 72 hrs with 0 μM (control), 53 μM of SEQ ID NO:3 or 53 μM of SEQ ID NO:7. After incubation, both control and treated cells were washed, fixed, permeabilized and incubated with a Phycoerythrin (PE)-conjugated antibody that recognizes the active catalytic unit of caspase 3 (Clone: C92-605; BD Pharmingen, San Diego, Calif., USA) using the conditions recommended by the manufacturer. Fluorescence associated with active caspase 3 was analyzed by flow cytometry on a FACSCALIBUR using the program CellQUEST (both from Becton Dickinson, San Jose, Calif., USA).

[3] = test system: EL-4 murine T lymphoma cells; test: EL-4 lymphoma implanted subcutaneously in C57/BL6 mice; format: in vivo; settings: 1, 10, 100 mg/kg, after 4 weeks of treatment; versus saline and SEQ ID NO:3; dose-dependent
Method: EL-4 murine T lymphoma cells are implanted subcutaneously into C57/BL6 mice as previously described (Krawczyk et al., Cancer Immunol. Immunother. 40:347, 1995). The mice are divided into 7 groups of 10 mice. On day 0, group 1 mice receive saline, group 2 mice receive 1 mg/kg SEQ ID NO:3, group 3 mice receive 10 mg/kg SEQ ID NO:3, group 4 mice receive 100 mg/kg SEQ ID NO:3, group 5 mice receive 1 mg/kg SEQ ID NO:7, group 6 mice receive 10 mg/kg SEQ ID NO:7, group 7 mice receive 100 mg/kg SEQ ID NO:7. After 4 weeks of treatment, the mice are sacrificed and tumor mass is determined.

MDA-MB-231 cells [4] = test: MDA-MB-231 xenotransplanted tumors in nude mice (Example 22); format: in vivo; settings: 0.5, 5, 50 mg/kg intravenously every 3 days, 6 doses maximum; versus saline and SEQ ID NO:3; dose-dependent
Method: MDA-MB-231 cells are xenotransplanted subcutaneously into nude mice. The mice are divided into 7 groups of 10 mice. After the tumors reach 5 mm in diameter, group 1 mice receive saline, group 2 mice receive 0.5 mg/kg SEQ ID NO:3, group 3 mice receive 5 mg/kg SEQ ID NO:3, group 4 mice receive 50 mg/kg SEQ ID NO:3, group 5 mice receive 0.5 mg/kg SEQ ID NO:7, group 6 mice receive 5 mg/kg SEQ ID NO:7, group 7 mice receive 50 mg/kg SEQ ID NO:7. Treatments are given intravenously every 3 days for 6 doses maximum. Mice are sacrificed when tumor reach 1 cm in diameter, at any sign of distress or at the end of the study (3 months from cell injection). Complete autopsies are performed. Tumor mass, presence of invasion and metastasis are determined.

MDA-MB-231 cells [5] = test: MDA-MB-231 xenotransplanted tumors in nude mice (Example 23); format: in vivo; settings: 0.4, 4, 40 mg/kg intravenously every 3 days, 6 doses maximum; versus saline and SEQ ID NO:3; dose-dependent
Method: Breast cancer MDA-MB-231 cells are xenotransplanted subcutaneously in nude mice (1×10^7 cells). The mice are divided into 7 groups of 10 mice. After the tumors reach […] in diameter, group 1 mice receive saline, group 2 mice receive 0.4 mg/kg SEQ ID NO:3, group 3 mice receive 4 mg/kg SEQ ID NO:3, group 4 mice receive 40 mg/kg SEQ ID NO:3, group 5 mice receive 0.4 mg/kg SEQ ID NO:7, group 6 mice receive 4 mg/kg SEQ ID NO:7, group 7 mice receive 40 mg/kg SEQ ID NO:7. Treatments are given intravenously every 3 days for 6 doses maximum. Mice are sacrificed when tumor reach 1 cm in diameter, at any sign of distress or at the end of the study (3 months from cell injection). Complete autopsies are performed. Tumor mass, presence of invasion and metastasis are determined.

Substance: 5′ OH-CCACCC(TEG-cholesteryl) 3′ (3' {TEG-Chol}, sugars by position and backbone not given here) [SEQ ID NO:7]
- Percentage of positive cells for phosphatidylserine (cells in apoptosis) in EL-4 cells (EL-4 cells [1]; 0.53 μM): 8%
- Percentage of positive cells for phosphatidylserine (cells in apoptosis) in EL-4 cells (EL-4 cells [1]; 5.3 μM): 11%
- Percentage of positive cells for phosphatidylserine (cells in apoptosis) in EL-4 cells (EL-4 cells [1]; 53.0 μM): 49%
- Induction of apoptosis in EL-4 cells (in words) (EL-4 cells [1]): capacity to induce apoptosis
- Activation of caspase-3 in EL-4 cells (in words) (EL-4 cells [2]): capacity to induce apoptosis as measured by the activation of caspase-3
- Percentage of cells containing activated caspase-3 (EL-4 cells [2]): 38%
- Tumor mass [3]: less tumor mass
- Tumor mass (MDA-MB-231 cells [4]): less tumor mass
- Tumor mass and metastasis (MDA-MB-231 cells [5]): less tumor mass and metastasis

Substance: 5′ OH-CCACCC-OH 3′ (listed as DNA, chemistry not fully specified) [SEQ ID NO:3]
- Percentage of positive cells for phosphatidylserine (cells in apoptosis) in EL-4 cells (EL-4 cells [1]; 0.53 μM): 7%
- Percentage of positive cells for phosphatidylserine (cells in apoptosis) in EL-4 cells (EL-4 cells [1]; 5.3 μM): 7%
- Percentage of positive cells for phosphatidylserine (cells in apoptosis) in EL-4 cells (EL-4 cells [1]; 53.0 μM): 7%
- Induction of apoptosis in EL-4 cells (in words) (EL-4 cells [1]): neither SEQ ID NO:3 nor cholesteryl-TEG phosphoramidite caused apoptosis
- Activation of caspase-3 in EL-4 cells (in words) (EL-4 cells [2]): inactive
- Percentage of cells containing activated caspase-3 (EL-4 cells [2]): 4%
